Data reported in patent publication US4352811A, “3-(1-Substituted-4-piperidyl)-1,2-benzisoxazoles” (Hoechst-Roussel Pharmaceuticals Inc., priority 1981, dated 1982).
Structures can show the parent of a compound that is named as a salt.

tested on: apomorphine climbing; test: Neuroleptic activity in the climbing mice assay (apomorphine-induced climbing); format: in vivo, mice (CK-1 male); details: Mus musculus, ip, intraperitoneal 30 min before apomorphine 1.5 mg/kg s.c., climbing scored at 10, 20 and 30 min, linear regression, read-out: NEUROLEPTIC ACTIVITY (ED50 mg/kg)
Method: The subject CK-1 male mice (23-27 grams) are group-housed under standard laboratory conditions. The mice are individually placed in wire mesh stick cages (4"×4" by 10") and are allowed one hour for adaptation and exploration of the new environment.
For evaluation of climbing, 3 readings are taken at 10, 20 and 30 minutes after apomorphine administration according to the following scale: […]
Mice consistently climbing before the injection of apormorphine will be discarded.
With full-developed apomorphine climbing, the animals are hanging onto the cage walls, rather motionless, over longer periods of time. By contrast, climbs due to mere motor stimulation usually only last a few seconds.
The climbing scores are individually totaled (maximal score: 6 per mouse over 3 readings) and the total score of the control group (vehicle intraperitoneally--apomorphine subcutaneously) is set to 100%.

Row | Structure (SMILES) | ED50 [mg/kg]
1 | Cl.O=C(CCCN1CCC(c2noc3cc(Cl)ccc23)CC1)c1ccc(F)cc1 [3-[1-(4-Fluorobenzoylpropyl)-4-piperidyl]-6-chloro-1,2-benzisoxazole hydrochloride] | 0.27
2 | Fc1ccc2c(CCCN3CCC(c4noc5ccc(F)cc45)CC3)noc2c1 [3-[1-(6-Fluoro-1,2-benzisoxazol-3-propyl)-4-piperidyl]-5-fluoro-1,2-benzisoxazole hydrochloride] | 3.4
3 | COc1ccc2onc(C3CCN(CCCc4noc5cc(F)ccc45)CC3)c2c1 [3-[1-(6-Fluoro-1,2-benzisoxazole-3-propyl)-4-piperidyl]-5-methoxy-1,2-benzisoxazole hydrobromide] | 7.23
4 | O=c1[nH]c2ccccc2n1CCCN1CCC(c2noc3ccccc23)CC1 [3-{1,3-dihydro-2-oxo-2H-benzmidazol-1-ylpropyl]-4-piperidyl}-1,2-benzisoxazole] | 0.36
5 | Br.O=c1[nH]c2ccccc2n1CCN1CCC(c2noc3ccccc23)CC1 [3-{1-[1,3-Dihydro-2-oxo-2H-benzimidazol-1-ylethyl]-4-piperidyl}1,2-benzisoxazole hydrobromide] | 7.7
6 | Fc1ccc(C(CCCN2CCC(c3noc4ccc(F)cc34)CC2)c2ccc(F)cc2)cc1 [3-{1-[4,4-bis-Fluorophenyl)-1-butyl]-4-piperidyl}-5-fluoro-1,2-benzisoxazole hydrochloride] | 1.6
7 | Cc1[nH]c2ccccc2c1CCCN1CCC(c2noc3cc(F)ccc23)CC1 [3-{3-[4-(6-Fluoro-1,2-benzisoxazol-3-yl)piperidyl]propyl}-2-methylindole] | 0.16
8 | Cl.Fc1ccc(C(CCCN2CCC(c3noc4cc(Cl)ccc34)CC2)c2ccc(F)cc2)cc1 [6-Chloro-3{1-[4,4-bis(4-fluorophenyl)-1-butyl]-4-piperidyl}-1,2-benzisoxazole hydrochloride] | 6.4
9 | Fc1ccc(C(CCCN2CCC(c3noc4cc(F)ccc34)CC2)c2ccc(F)cc2)cc1 [6-Fluoro-3-{1-[4,4-bis(4-fluorophenyl)-1-butyl]-4-piperidyl]-1,2-benzisoxable hydrobromide] | 0.58
10 | CCN1CCCC1CNC(=O)c1cc(S(N)(=O)=O)ccc1OC (centres unmarked) [sulpiride, reference compound] | 14.5

same assay, conditions: Mus musculus, ip, intraperitoneal 30 min before apomorphine 1.5 mg/kg s.c., climbing scored at 10, 20 and 30 min, linear regression, read-out: N[…] (ED50 mg/kg)

Row | Structure (SMILES) | ED50 [mg/kg]
11 | O=C(CCCN1CCC(O)(c2ccc(Cl)cc2)CC1)c1ccc(F)cc1 [haloperidol, reference compound] | 0.11
